Experimental data as given in patent publication US20250082598A1, “Melafenoxate, 2-(1-adamantylamino)ethyl 2-(4-chlorophenoxy)acetate and derivatives thereof for treating circadian rhythm sleep disorders with neurodegenerative diseases such as Alzheimer's disease” (NLS Pharmaceutics AG, priority 2021, published 2025).
“Also recorded” adds a separate entry of the source.

Assays:
5-HT7 (h) = biological target: T1, 5-HT7 (h) (Homo sapiens, UniProt P34969); test: Radioligand binding, 5-HT7 (h); details: 10^−5 M; agonist radioligand
T1 construct: CEREP (Eurofins, France)
T1 sequence (P34969 whole entry): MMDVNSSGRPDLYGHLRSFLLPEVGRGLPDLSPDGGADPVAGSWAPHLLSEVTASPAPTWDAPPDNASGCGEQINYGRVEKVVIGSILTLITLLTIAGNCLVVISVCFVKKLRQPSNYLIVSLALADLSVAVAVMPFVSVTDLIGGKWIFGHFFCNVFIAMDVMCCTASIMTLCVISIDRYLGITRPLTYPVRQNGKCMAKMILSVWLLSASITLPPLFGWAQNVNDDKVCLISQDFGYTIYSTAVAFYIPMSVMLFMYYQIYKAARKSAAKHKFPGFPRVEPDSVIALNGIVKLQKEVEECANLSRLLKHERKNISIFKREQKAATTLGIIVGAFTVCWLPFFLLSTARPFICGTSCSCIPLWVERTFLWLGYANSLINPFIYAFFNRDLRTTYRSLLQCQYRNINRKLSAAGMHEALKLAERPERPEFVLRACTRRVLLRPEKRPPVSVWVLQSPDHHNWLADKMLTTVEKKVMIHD
Procedure: Melafenoxate was tested at 10^−5 M, calculated as a % inhibition of control specific binding of a radioactively labeled ligand specific for each target.
This binding profile panel was broadly defined with roughly an equal number of selective, central and peripheral therapeutically relevant targets, including native animal tissues, radioligands and specific enzymes involved in cell cycle regulation in accordance with Eurofins Standard Operating Procedure.
For radioligand binding experiments, the half maximal inhibitory concentration (IC50) and the half maximal effective concentration (EC50) values were determined (via computer software) by nonlinear regression analysis of the competition curves using Hill equation curve fitting. The inhibition constants (Ki) were calculated using the Cheng-Prusoff equation (Ki=IC50/(1+(L/KD)), where L is the concentration of radioligand in the assay, and KD is the affinity of the radioligand for the receptor.^49
The results are expressed as a % control specific binding ([measured specific binding/control specific binding]×100) and as a % inhibition of control specific binding (100−[(measured specific binding/control specific binding)×100]) obtained in the presence of the test compounds. […]

C57BL/6J mice = test: Spontaneous locomotor activity in open-field; format: in vivo; details: 3.125, 6.25, 12.5, 25, 50 and 100 mg/kg
Procedure: Experiments were carried out on C57BL/6J mice.
The effects of NLS-8 (6 doses) on spontaneous locomotor activity were examined. For this purpose, animals received an injection of NLS-8 (3.125, 6.25, 12.5, 25, 50 and 100 mg/kg) or its vehicle (Control group) (N=6/group) and were placed in an open-field for a 90-min session.
Locomotor activity (distance travelled in the open-field during the first, second and third 30-min period following treatment) was automatically recorded.
Data analysis: between group comparisons of all groups vs. the Control group: unpaired Student's t test.

Structure (SMILES): O=C(COc1ccc(Cl)cc1)OCCNC12CC3CC(CC(C3)C1)C2 [Melafenoxate, 2-(1-adamantylamino)ethyl 2-(4-chlorophenoxy)acetate]
- inhibition at 10 µM (5-HT7 (h)): 12.8%
- distance travelled in the open-field (locomotor activity) vs. Control group (C57BL/6J mice; 90-min session, C57BL/6J mice, listed as NLS-8): did not significantly modify; also recorded: no significant
- visible side effect (C57BL/6J mice; any dose tested): did not induce visible side effect
